Laboratory results from ChEMBL document CHEMBL6177977, “Discovery of a Potent, Selective, and Brain-Penetrant Checkpoint Kinase 1 Inhibitor, BEN-28010, for the Treatment of Glioblastoma” (J Med Chem, 2025).
Converted amounts (≈) assume the structure as drawn.

Columns and labels:
[1] = target: T1, Serine/threonine-protein kinase Chk1 (Homo sapiens, UniProt O14757); experiment: Inhibition of N-terminal GST-fused human full length CHK1 (1 to 476 residues) expressed in baculovirus-infected Sf21 cells using STK1 S1 as substrate preincubated for 30 mins in presence of ATP followed by MgCl2 addition and measured after 60 mins by TR-FRET assay
T1 sequence (O14757 whole entry): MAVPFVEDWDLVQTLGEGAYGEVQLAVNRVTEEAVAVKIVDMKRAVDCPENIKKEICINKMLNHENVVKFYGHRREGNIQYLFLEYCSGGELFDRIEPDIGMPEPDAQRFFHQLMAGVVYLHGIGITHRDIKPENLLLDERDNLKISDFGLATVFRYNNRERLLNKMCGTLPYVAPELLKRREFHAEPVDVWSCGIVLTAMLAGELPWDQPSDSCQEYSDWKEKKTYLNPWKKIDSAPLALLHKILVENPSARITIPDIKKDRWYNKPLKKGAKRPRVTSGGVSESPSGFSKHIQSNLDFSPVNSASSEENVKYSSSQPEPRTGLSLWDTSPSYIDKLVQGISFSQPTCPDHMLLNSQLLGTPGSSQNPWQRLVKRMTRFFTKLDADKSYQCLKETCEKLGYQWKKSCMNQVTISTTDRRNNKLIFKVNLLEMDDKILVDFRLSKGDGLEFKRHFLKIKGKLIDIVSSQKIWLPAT

MDR1 = experiment: in vitro; conditions: dog, MDCK-MDR1
Description: Efflux ratio of apparent permeability across basal to apical side over apical to basal side in dog MDCK-MDR1 cells at 1 uM measured after 1 day by LC-MS/MS analysis

BCRP = experiment: in vitro; conditions: dog
Description: Efflux ratio of apparent permeability across basal to apical side over apical to basal side in dog MDCK-BCRP cells at 1 uM measured after 1 day by LC-MS/MS analysis

[2] = target: Serine/threonine-protein kinase Chk2 (Homo sapiens, UniProt O96017); experiment: biochemical
Sequence of Serine/threonine-protein kinase Chk2 (O96017 whole entry): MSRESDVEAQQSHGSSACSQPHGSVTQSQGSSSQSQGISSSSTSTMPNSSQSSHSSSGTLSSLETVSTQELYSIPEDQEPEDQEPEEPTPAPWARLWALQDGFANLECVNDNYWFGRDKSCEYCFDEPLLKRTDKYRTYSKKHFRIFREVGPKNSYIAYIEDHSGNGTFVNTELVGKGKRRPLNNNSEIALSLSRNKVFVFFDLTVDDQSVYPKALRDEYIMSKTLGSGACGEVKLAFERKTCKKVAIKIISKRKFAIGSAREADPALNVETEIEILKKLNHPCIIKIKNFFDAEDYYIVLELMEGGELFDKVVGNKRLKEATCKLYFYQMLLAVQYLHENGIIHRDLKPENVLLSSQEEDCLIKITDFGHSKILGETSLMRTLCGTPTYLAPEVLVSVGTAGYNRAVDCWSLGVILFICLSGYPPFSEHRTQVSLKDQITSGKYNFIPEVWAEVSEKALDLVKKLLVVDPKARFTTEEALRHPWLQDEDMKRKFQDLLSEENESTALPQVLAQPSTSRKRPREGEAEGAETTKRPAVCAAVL
Description: Inhibition of N-terminal GST-fused human full length CHK2 (1 to 543 residues) expressed in baculovirus-infected Sf21 cells using STK1 S1 as substrate preincubated for 30 mins in presence of ATP followed by MgCl2 addition and measured after 60 mins by TR-FRET assay

[3] = target: T1, Serine/threonine-protein kinase Chk1; experiment: Inhibition of human full length recombinant CHK1 using KKKVSRSGLYRSPSMPENLNRPR as substrate in presence of [gamma-33P]ATP incubated for 40 mins by radiometric assay
[4] = Apparent permeability of the compound in dog MDCK-MDR1 cells at 1 uM measured after 1 day by LC-MS/MS analysis; format: ADME, cell-based, Canis lupus familiaris
[5] = target: T1, Serine/threonine-protein kinase Chk1; experiment: Inhibition of CHK1 in neocarzinostatin-stimulated human SW620 cells assessed as inhibition of CHK1 phosphorylation at Ser296 residue incubated for 2 hrs by sandwich ELISA; format: cell-based
[6] = target: Voltage-dependent L-type calcium channel subunit alpha-1C (Homo sapiens, UniProt Q13936); experiment: Inhibition of human Cav1.2 transfected in CHO cells by automated electrophysiological analysis; format: cell-based
Sequence of Voltage-dependent L-type calcium channel subunit alpha-1C (Q13936 whole entry): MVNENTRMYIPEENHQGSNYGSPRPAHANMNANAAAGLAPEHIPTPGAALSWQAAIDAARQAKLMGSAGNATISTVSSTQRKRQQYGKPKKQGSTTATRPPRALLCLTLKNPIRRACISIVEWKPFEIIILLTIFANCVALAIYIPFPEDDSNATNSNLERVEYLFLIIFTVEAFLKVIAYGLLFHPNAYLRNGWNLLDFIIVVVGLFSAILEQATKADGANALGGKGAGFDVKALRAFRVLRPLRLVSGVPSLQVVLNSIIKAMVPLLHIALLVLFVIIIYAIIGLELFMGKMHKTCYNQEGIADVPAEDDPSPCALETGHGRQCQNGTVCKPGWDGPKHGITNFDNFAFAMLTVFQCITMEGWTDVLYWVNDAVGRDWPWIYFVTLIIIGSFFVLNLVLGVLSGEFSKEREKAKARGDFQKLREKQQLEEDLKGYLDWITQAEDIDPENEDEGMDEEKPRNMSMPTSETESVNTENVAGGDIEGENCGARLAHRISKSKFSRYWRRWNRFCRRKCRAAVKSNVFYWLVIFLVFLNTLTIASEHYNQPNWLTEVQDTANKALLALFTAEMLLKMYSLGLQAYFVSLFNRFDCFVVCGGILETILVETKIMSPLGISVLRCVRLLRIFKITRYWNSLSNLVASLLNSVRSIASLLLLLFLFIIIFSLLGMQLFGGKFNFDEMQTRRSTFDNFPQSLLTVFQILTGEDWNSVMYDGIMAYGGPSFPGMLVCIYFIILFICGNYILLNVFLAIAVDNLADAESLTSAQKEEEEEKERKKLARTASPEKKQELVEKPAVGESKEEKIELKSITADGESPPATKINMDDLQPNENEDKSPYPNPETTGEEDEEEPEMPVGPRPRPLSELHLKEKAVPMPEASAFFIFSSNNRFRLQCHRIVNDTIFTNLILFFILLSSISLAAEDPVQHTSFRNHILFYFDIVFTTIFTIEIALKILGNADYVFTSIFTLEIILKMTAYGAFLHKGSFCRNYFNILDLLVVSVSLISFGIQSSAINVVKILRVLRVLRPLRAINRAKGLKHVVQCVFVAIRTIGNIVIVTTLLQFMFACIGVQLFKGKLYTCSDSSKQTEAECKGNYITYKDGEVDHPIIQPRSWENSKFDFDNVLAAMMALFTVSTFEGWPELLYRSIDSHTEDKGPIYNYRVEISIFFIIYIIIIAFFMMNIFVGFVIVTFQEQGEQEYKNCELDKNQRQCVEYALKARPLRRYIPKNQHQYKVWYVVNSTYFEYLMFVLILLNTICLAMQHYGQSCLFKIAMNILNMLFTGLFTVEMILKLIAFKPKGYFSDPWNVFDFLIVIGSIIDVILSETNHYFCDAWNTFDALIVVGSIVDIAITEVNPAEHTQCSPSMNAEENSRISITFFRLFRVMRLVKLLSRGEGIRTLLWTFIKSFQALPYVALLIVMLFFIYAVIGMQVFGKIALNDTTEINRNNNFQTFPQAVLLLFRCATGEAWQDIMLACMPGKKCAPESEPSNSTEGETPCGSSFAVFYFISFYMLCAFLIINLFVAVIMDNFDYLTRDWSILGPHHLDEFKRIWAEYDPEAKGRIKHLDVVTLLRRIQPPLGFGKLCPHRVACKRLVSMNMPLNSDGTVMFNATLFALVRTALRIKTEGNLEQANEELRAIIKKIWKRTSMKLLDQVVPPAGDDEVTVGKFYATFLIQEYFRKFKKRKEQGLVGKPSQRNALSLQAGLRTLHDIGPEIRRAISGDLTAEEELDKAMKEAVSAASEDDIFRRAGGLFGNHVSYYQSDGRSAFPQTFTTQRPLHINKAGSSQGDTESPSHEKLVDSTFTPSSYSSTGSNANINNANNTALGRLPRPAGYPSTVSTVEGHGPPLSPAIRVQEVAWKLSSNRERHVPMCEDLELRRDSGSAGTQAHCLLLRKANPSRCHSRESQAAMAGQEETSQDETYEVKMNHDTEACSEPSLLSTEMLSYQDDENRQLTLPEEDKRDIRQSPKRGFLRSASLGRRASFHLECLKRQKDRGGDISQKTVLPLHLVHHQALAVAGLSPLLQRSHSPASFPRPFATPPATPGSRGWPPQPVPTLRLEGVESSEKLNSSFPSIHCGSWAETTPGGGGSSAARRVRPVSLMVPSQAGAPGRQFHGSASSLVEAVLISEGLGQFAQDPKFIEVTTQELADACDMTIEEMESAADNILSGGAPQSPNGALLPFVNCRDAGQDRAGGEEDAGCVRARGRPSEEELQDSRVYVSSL

[7] = target: Sodium channel protein type 5 subunit alpha (Homo sapiens, UniProt Q14524); experiment: Inhibition of human Nav1.5 transfected in CHO cells by automated electrophysiological analysis; format: cell-based
[8] = Plasma concentration required to achieve 50% in vivo inhibition of CHK1 assessed as accumulation of CHK1 phosphorylation at Ser345 residue in tumors in po dosed GBM LN-229 CDX NOD/SCID mouse model; format: organism-based; conditions: LN-229, Plasma
GBM [9] = experiment: Antitumor activity against human patient-derived GBM cells implanted in orthotopic NOG mouse model assessed as lifespan of animal's survival at 30 mg/kg, po qd for 28 days (reference value: 25.5 days); format: functional; conditions: time 28 day
GBM [10] = experiment: Antitumor activity against human patient-derived GBM cells implanted in orthotopic NOG mouse model assessed as lifespan of animal's survival at 50 mg/kg, po qd with dosing schedule of 3 days on and 4 days off for 28 days (reference value: 25.5 days); format: functional; conditions: time 28 day
GBM [11] = experiment: Antitumor activity against human patient-derived GBM cells implanted in orthotopic NOG mouse model assessed as lifespan of animal's survival at 100 mg/kg, po qd with dosing schedule of 2 days on and 11 days off for 28 days (reference value: 25.5 days); format: functional; conditions: time 28 day
[12] = target: Voltage-gated inwardly rectifying potassium channel KCNH2 (Homo sapiens, UniProt Q12809); experiment: Inhibition of hERG expressed in HEK cells by electrophysiology; format: toxicity, cell-based
Sequence of Voltage-gated inwardly rectifying potassium channel KCNH2 (Q12809 whole entry): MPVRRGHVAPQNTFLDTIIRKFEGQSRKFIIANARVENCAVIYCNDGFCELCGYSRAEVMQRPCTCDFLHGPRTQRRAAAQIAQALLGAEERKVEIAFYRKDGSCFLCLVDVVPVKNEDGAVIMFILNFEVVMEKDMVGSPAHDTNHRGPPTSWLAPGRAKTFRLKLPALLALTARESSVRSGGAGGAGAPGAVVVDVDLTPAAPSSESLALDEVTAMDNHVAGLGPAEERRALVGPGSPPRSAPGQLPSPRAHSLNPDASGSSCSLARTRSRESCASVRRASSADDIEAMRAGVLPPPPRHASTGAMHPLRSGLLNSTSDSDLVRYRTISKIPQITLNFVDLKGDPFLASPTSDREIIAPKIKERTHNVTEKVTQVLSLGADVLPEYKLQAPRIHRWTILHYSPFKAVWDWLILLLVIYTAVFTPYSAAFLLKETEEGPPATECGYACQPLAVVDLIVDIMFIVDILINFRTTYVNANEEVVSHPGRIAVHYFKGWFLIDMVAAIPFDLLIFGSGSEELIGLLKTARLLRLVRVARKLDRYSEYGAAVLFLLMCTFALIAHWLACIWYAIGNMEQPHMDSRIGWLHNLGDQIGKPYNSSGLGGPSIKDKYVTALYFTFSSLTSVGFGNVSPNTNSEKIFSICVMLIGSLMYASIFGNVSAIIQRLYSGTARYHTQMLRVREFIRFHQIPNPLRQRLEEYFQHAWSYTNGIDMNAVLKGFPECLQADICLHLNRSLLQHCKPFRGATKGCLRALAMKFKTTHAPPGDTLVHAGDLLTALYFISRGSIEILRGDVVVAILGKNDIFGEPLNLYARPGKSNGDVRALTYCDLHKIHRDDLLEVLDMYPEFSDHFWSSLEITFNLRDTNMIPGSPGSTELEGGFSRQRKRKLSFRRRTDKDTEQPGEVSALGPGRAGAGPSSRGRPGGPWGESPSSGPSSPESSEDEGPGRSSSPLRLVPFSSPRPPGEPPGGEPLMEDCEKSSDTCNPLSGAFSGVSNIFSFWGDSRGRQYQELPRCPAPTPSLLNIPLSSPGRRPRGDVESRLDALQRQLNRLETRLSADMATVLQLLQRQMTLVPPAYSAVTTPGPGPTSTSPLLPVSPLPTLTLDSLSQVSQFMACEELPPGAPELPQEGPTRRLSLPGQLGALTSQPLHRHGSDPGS

[13] = Kinetic aqueous solubility of the compound at 250 uM measured after 2 hrs by RP-UPLC-DAD analysis; format: physicochemical; conditions: buffer, read-out: Kinetic_solubility
[14] = Intrinsic clearance in human liver microsomes measured per mg protein; format: ADME, Microsome; conditions: read-out: CLH
[15] = Intrinsic clearance in rat liver microsomes measured per mg protein; format: ADME, Microsome; conditions: read-out: CLH
in vivo = conditions: Sprague-Dawley, rat, brain and plasma, iv, 1 mg/kg
Description: Unbound brain-to-plasma concentration ratio in Sprague-Dawley rat at 1 mg/kg, iv measured after 15 mins by rapid equilibrium dialysis method

in vitro = conditions: dog, MDCK
Description: Apparent permeability of the compound across apical to basolateral side in dog MDCK cells at 1 uM measured after 1 day by LC-MS/MS analysis

GBM [16] = experiment: Antitumor activity against human patient-derived GBM cells implanted in orthotopic NOG mouse model assessed as lifespan of animal's survival at 20 mg/kg, ip qd with dosing schedule of 5 days on and 2 days off for 28 days (reference value: 25.5 days); format: functional; conditions: time 28 day

SMILES | IC50 [1] [nM] | efflux ratio at 24 h, 1 µM (MDR1) | efflux ratio at 24 h, 1 µM (BCRP) | IC50 [2] [nM] | also measured
CN1CC2(CCN(c3nc(Nc4cn(C(F)F)cn4)cnc3C#N)C2)C1 | 14 | 34 | > 50 | – | –
CN1CC2(C1)CN(c1ccc(-n3cnc(Nc4cnc(C#N)cn4)c3)cc1)C2 | 31 | – | – | – | –
CN(C)[C@H]1CN(c2ccc(-n3cnc(Nc4cnc(C#N)cn4)c3)cc2)C[C@@H]1F | 5 | – | – | 1310 | –
Cc1cc(N2CCN(C)CC2)ccc1-n1cnc(Nc2cnc(C#N)cn2)c1 | 464 | – | – | – | –
CN(C)[C@]1(C)CCN(c2ccc(-n3cnc(Nc4cnc(C#N)cn4)c3)cc2)C1 | 2 | 3.6 | 1.5 | 1100 | –
C[C@@H]1CN(c2ccc(-n3cnc(Nc4cnc(C#N)cn4)c3)cc2)C[C@@H]1N(C)C | 16 | – | – | > 10000 | –
CN(C)[C@H]1CCN(c2ccc(-n3cnc(Nc4cnc(C#N)cn4)c3)cc2)C1 | 68 | – | – | – | –
N#Cc1cnc(Nc2cn(-c3ccccc3)cn2)cn1 | – | 0.6 | 1 | – | IC50 [3]: 549 nM
N#Cc1cnc(Nc2cn(C(F)F)cn2)cn1 | – | 0.9 | – | – | IC50 [3]: 3000 nM; Papp at 24 h, 1 µM [4]: 66 ×10⁻⁶ cm/s
CN(C)C1CN(c2ccc(-n3cnc(Nc4cnc(C#N)cn4)c3)cc2)C1 | 9 | – | – | > 10000 | –
C[C@H]1CN(c2ccc(-n3cnc(Nc4cnc(C#N)cn4)c3)cc2)C[C@@H]1N(C)C | 4 | – | – | 2720 | –
CN(C)C1CCN(c2ccc(-n3cnc(Nc4cnc(C#N)cn4)c3)cc2)CC1 | 11 | 26 | 23 | 8760 | –
CN(C)[C@H]1CN(c2ccc(-n3cnc(Nc4cnc(C#N)cn4)c3)cc2)C[C@H]1F | 14 | – | – | 3190 | –
CN(C)[C@@H]1CCN(c2ccc(-n3cnc(Nc4cnc(C#N)cn4)c3)cc2)C1 | 4 | – | – | – | IC50 [5]: 450 nM; IC50 [6]: > 30000 nM; IC50 [7]: > 30000 nM; IC50 [8]: 209 nM; Survival (GBM [9]): 34 days; Survival (GBM [10]): 39.5 days; Survival (GBM [11]): 50 days
CCN1CCN(c2ccc(-n3cnc(Nc4cnc(C#N)cn4)c3)cc2)CC1 | 21 | – | – | – | –
N#Cc1cnc(Nc2cn(-c3ccc(N4CCN(CCF)CC4)cc3)cn2)cn1 | 40 | < 1 | 1.4 | > 10000 | –
CN1CCN(c2ccc(-n3cnc(Nc4cnc(C#N)cn4)c3)cc2)CC1 | 15 | 1.7 | 3.7 | > 10000 | IC50 [12]: > 30000 nM; solubility kinetic at 2 h, 250 µM [13]: 59 µM (≈ 21.3 µg/mL); microsomal CLint [14]: < 14 µL/min/mg; microsomal CLint [15]: 47 µL/min/mg; Kp uu at […] (in vivo): 0.4; Papp A→B at 24 h, 1 µM (in vitro): 58 ×10⁻⁶ cm/s
CN1CC[C@@H]2CN(c3ccc(-n4cnc(Nc5cnc(C#N)cn5)c4)cc3)C[C@@H]21 | 17 | 2.5 | 2.7 | > 10000 | –
CCN(C)[C@@H]1CCN(c2ccc(-n3cnc(Nc4cnc(C#N)cn4)c3)cc2)C1 | 4 | – | – | 2070 | –
CN1CC2(CCN(c3nc(Nc4cn(-c5ccccn5)cn4)cnc3C#N)C2)C1 | 2 | > 50 | > 50 | – | –
CN1CC2(CCN(c3ccc(-n4cnc(Nc5cnc(C#N)cn5)c4)cc3)C2)C1 | 12 | – | – | > 10000 | –
Cn1nnc2c(C(N)=O)ncn2c1=O [TEMOZOLOMIDE] | – | – | – | – | Survival (GBM [16]): 43 days
